Test results reported in patent US20020042072A1, “Method for monitoring the effect of cancer therapies” (priority 2000, published 2002).
Like-named read-outs stand apart in the source and are kept apart here.

What was measured:
[1] = tested on: telomerase activity in A431 xenograft; assay: Telomerase activity (TRAPeze ELISA) in A431 xenograft tumour material; format: in vivo, nu/nu mice
Protocol: (§1) Human tumour cells KB (CCL-17) and A43 1 (CRL-1555) were obtained from ATCC and cultured in DMEM medium supplemented with 10% fetal calf serum, 10 mM HEPES, 50 μmol/l beta-mercaptoethanol and a standard complement of antibiotics.
(§2) To establish subcutaneous tumours in nu/nu mice (5-6 week old female animals, supplied by Harlan, The Netherlands), cells were trypsinised, washed and suspended in phosphate-buffered physiological solution+10% fetal calf serum at 10^7 cells/ml. 100 μl cell suspension containing 10^6 cells were then injected subcutaneously into the right flank of the mice (one site per mouse). When tumours were well established and had reached diameters of more than 5-9 mm, mice were randomly distributed between treatment and the vehicle control group (7-10 days after cell injection). Test compounds (1 and 5 mg/ml) were dissolved and administered intragastically by gavage needle. Administration was once daily oral dosing in a volume of 10 ml/kg body weight. Tumour diameters were measured three times weekly with a caliper. Volumes (in mm^3) were calculated according to the formula: tumour volume=length*diameter^2*π/6.
(§3) For measuring telomerase activity, the Oncor®, TRAPeze™ Elisa Telomerase Detection Kit was used. Tumour material surgically removed from mice was cleaned and frozen at −70° C. […]

A431 xenograft = assay: Tumour growth of subcutaneous A431 xenograft; format: in vivo, nu/nu mice; conditions: for % reduction of tumour growth: A431 xenograft; for tumor growth in vivo: oral administration, nu/nu mice xenografted with A43 1 or KB tumor cells
Protocol: as §1, §2

[2] = tested on: telomerase activity in KB xenograft; assay: Telomerase activity (TRAPeze ELISA) in KB xenograft tumour material; format: in vivo, nu/nu mice; conditions: 50 mg/kg once daily oral
Protocol: as §1, §2, §3

KB xenograft = assay: Tumour growth of subcutaneous KB xenograft; format: in vivo, nu/nu mice; conditions: 50 mg/kg once daily oral
Protocol: as §1, §2

NB-4 = conditions: NB-4, differentiation-sensitive clones; cited from earlier work
NTERA-2 = conditions: NTERA-2, differentiation-sensitive clones; cited from earlier work
MCF-7 = conditions: cited from earlier work
MDA-MB23 1 = conditions: cited from earlier work

SMILES: CC1(N)CCN(c2ncc3ncnc(Nc4ccc(F)c(Cl)c4)c3n2)CC1 [Inhibitor 2, 4-((3-chloro-4-fluoro-phenyl)amino)-6-(4-amino-4-methyl-1-piperidinyl)-pyrimido(5,4d)pyrimidine]
- % reduction of telomerase activity ([1]; 10 mg/kg once daily oral): 96%
- % reduction of tumour growth (A431 xenograft; 10 mg/kg once daily oral): 90%
- tumor growth in vivo (A431 xenograft): inhibited tumor growth in vivo

SMILES: CN1CCC(Nc2ncc3ncnc(Nc4ccc(F)c(Cl)c4)c3n2)CC1 [Inhibitor 1, 4-((3-chloro-4-fluoro-phenyl)amino)-6-(1-methyl-4-piperidinyl-amino)-pyrimido(5,4d)pyrimidine]
- % reduction of telomerase activity ([1]; 50 mg/kg once daily oral): 100%
- % reduction of tumour growth (A431 xenograft; 50 mg/kg once daily oral): 79%
- tumor growth in vivo (A431 xenograft): inhibited tumor growth in vivo
- % reduction of telomerase activity [2]: 6%
- % reduction of tumour growth (KB xenograft): 51%

SMILES: CC(=O)NCCCCCCNC(C)=O [hexamethylene bisacetamide]
- telomerase activity (NB-4): decline in telomerase activity
- telomerase activity (NTERA-2): decline in telomerase activity

SMILES: CC/C(=C(\c1ccccc1)c1ccc(OCCN(C)C)cc1)c1ccccc1 [tamoxifen]
- telomerase activity (MCF-7; MCF-7, 10^−8M): repressive effect
- telomerase activity (MCF-7; MCF-7, higher (10^−7 and 10^−6M) or lower (10^−9M) concentrations): no effect
- telomerase activity (MDA-MB23 1; MDA-MB23 1, 10^−8M): repressive effect
- telomerase activity (MDA-MB23 1; MDA-MB23 1, higher (10^−7 and 10^−6M) or lower (10^−9M) concentrations): no effect

SMILES: CC1=C(/C=C/C(C)=C/C=C/C(C)=C/C(=O)O)C(C)(C)CCC1 [all-trans-retinoic acid]
- telomerase activity (NB-4): decline in telomerase activity
- telomerase activity (NTERA-2): decline in telomerase activity
